Assay results taken from US20070197602A1, “Combined pharmaceutical composition” (priority 2004, published 2007).

Test system: streptozotocin-induced diabetic model
Experiment: Test Example 3: sucrose loading in streptozotocin-induced diabetic model, plasma glucose (GLU)
Type: in vivo, rat
Conditions: STZ rats; for GLU concentration before loading: Day 23, after oral once a day for 9 days, plasma glucose; for GLU concentration before loading / GLU concentration after loading / Rate of Change (GLU concentration after loading relative to before loading): metformin 50 mg/kg, voglibose 0.2 mg/kg, fenofibrate 50 mg/kg; for GLU concentration after loading: Day 24, 60 minutes after sucrose 2.5 g/kg oral given immediately after test article; for blood sugar level change by the sucrose loading (in words) / Rate of Change (GLU concentration after loading relative to before loading): sucrose loading 2.5 g/kg; for blood sugar level change by the sucrose loading (in words): STZ-treated control increased about 20%
Description: At 13 days after administration (Day 13), blood was collected from the rats, and plasma glucose (GLU) concentration was measured. […] From Day 14 (14 days after STZ administration), test articles shown in Table 1 were orally administered to the rats once a day for 9 days. At 23 days after STZ administration (Day 23), the GLU concentration was measured (previous value: GLU concentration before sucrose loading) (incidentally, the test articles were not administered on Day 23). […] Moreover, “N” represents the number of rats for determining the GLU concentration in the Table.

SMILES | GLU concentration before loading [g/L] | GLU concentration after loading [g/L] | blood sugar level change by the sucrose loading (in words) | Rate of Change (GLU concentration after loading relative to before loading) [%]
CC(C)OC(=O)C(C)(C)Oc1ccc(C(=O)c2ccc(Cl)cc2)cc1 [Fenofibrate] | 4.26 ± 0.55 | 4.78 ± 0.34 |  | 
OCC(CO)N[C@H]1C[C@](O)(CO)[C@@H](O)[C@H](O)[C@H]1O [Voglibose] | 4.30 ± 0.47 | 4.50 ± 0.42 | inhibited | 104.7
CN(C)C(=N)N=C(N)N [Metformin] | 4.57 ± 0.36 | 5.41 ± 0.38 | increased | 118.4
